# In publication PMC5494507, “γ‐Secretase inhibitors in cancer clinical trials are pharmacologically and functionally distinct” (EMBO Molecular Medicine, 2017):
# Entries after “also recorded” stand apart in the source; their conditions may differ.
# System: APP
# Test: Endogenous APP-CTF accumulation in MDA-MB-231 cells (Western blot)
# Format: cell-based
# Settings: MDA-MB-231 (231 cells), 100 nM, triplicate
# Experimental: To extend the study to a more physiological system, we assessed endogenous NOTCH1 cleavage inhibition using the triple‐negative breast cancer line MDA‐MB‐231 (Fig 6A). Full‐length blots are shown in source data for Fig 6. NOTCH1 cleavage was detected by Western blotting using the Cell Signaling neo‐epitope NICD antibody. […] The inhibition of endogenous APP in MDA‐MB‐231 cells was also tested by detecting accumulation of APP COOH‐terminal fragments (APP‐CTFs). […] Figure 6D summarized the APP‐CTF band intensities normalized for DMSO group. The original blots are available in source data for Fig 6.
# Values are mean ± SD of three tests. • APP‐CTF Western blot of MDA‐MB‐231 cells treated with indicated concentration of GSIs for 16 h. • Band intensities of APP‐CTF with 0.1 μM GSIs were normalized for DMSO control group. Values are mean ± SD of three tests. Data information: Original blots are provided as source data. All band intensity data are derived from three independent experiments and are analyzed by one‐way ANOVA using GraphPad Prism6 software. All experiments were repeated three times.Source data are available online for this figure.
row,Structure (SMILES),APP CTF level / accumulation at 100 nM
1,O=C(O)CC[C@H]1CC[C@@](c2cc(F)ccc2F)(S(=O)(=O)c2ccc(Cl)cc2)CC1 [MK‐0752],hard to see
2,CC(C)[C@H](O)C(=O)N[C@@H](C)C(=O)N[C@@H]1C(=O)N(C)CCc2ccccc21 [Semagacestat],hard to see; also recorded: did not significantly increase CTF level

# Same assay, conditions: MDA-MB-231 (231 cells), 100 nM, triplicate, vs DMSO
row,Structure (SMILES),APP CTF increase
1,CN1C(=O)[C@@H](NC(=O)[C@H](CCC(F)(F)F)[C@H](CCC(F)(F)F)C(N)=O)N=C(c2ccccc2)c2ccccc21 [BMS‐906024],> 15 times
2,CCC[C@H](N[C@H]1CCc2cc(F)cc(F)c2C1)C(=O)Nc1cn(C(C)(C)CNCC(C)(C)C)cn1 [PF‐3084014],> 15 times
3,CC(C)(C(=O)NCC(F)(F)C(F)(F)F)C(=O)N[C@@H]1C(=O)Nc2ccccc2-c2ccccc21 [RO4929097],> 15 times

# Same assay, conditions: MDA-MB-231 (231 cells), 100 nM, triplicate; listed as MK
row,Structure (SMILES),APP CTF level / accumulation at 100 nM
1,O=C(O)CC[C@H]1CC[C@@](c2cc(F)ccc2F)(S(=O)(=O)c2ccc(Cl)cc2)CC1 [MK‐0752],did not significantly increase CTF level

# Same assay, conditions: MDA-MB-231, 16 h
row,Structure (SMILES),concentration from which APP‐CTF process is inhibited
1,CN1C(=O)[C@@H](NC(=O)[C@H](CCC(F)(F)F)[C@H](CCC(F)(F)F)C(N)=O)N=C(c2ccccc2)c2ccccc21 [BMS‐906024],≥ 20 nM
2,O=C(O)CC[C@H]1CC[C@@](c2cc(F)ccc2F)(S(=O)(=O)c2ccc(Cl)cc2)CC1 [MK‐0752],≥ 500 nM
3,CCC[C@H](N[C@H]1CCc2cc(F)cc(F)c2C1)C(=O)Nc1cn(C(C)(C)CNCC(C)(C)C)cn1 [PF‐3084014],≥ 20 nM
4,CC(C)(C(=O)NCC(F)(F)C(F)(F)F)C(=O)N[C@@H]1C(=O)Nc2ccccc2-c2ccccc21 [RO4929097],≥ 20 nM
5,CC(C)[C@H](O)C(=O)N[C@@H](C)C(=O)N[C@@H]1C(=O)N(C)CCc2ccccc21 [Semagacestat],≥ 500 nM

# Target: cNOTCH2sub (Homo sapiens, UniProt P49768)
# Test: Cell-based γ-secretase cleavage assay, cNOTCH2sub in H4 cells (Aβ-like peptide ELISA)
# Settings: rank among the six GSIs, number in brackets
# Experimental: (§1) Using these cell‐based γ‐secretase cleavage assays, we systematically investigated the substrate inhibition profile of BMS‐906024, MK‐0752, PF‐308414, RO4929097, Semagacestat, and DAPT. We treated H4 cells stably expressing cNOTCH1‐4sub with 4 pM to 10 μM of GSIs (Fig 5A and Table 2) and measured the Aβ‐like peptide secreted into the media.
# (§2) For the cell‐based assay, all substrates contain a human NOTCH4 signal peptide sequence ([…]), amyloid β peptide (Aβ1–25/K16A) epitope tag followed by the juxtamembrane region (JMD) of the given substrate and a FLAG tag ([…]) at the COOH‐terminal. K16A mutant was created to decrease potential α‐secretase cleavage. The cDNAs were generated by gene synthesis conducted by Genscript. A schematic representation of the substrates is provided in Fig 4A, and sequences of the cDNAs and the proteins are provided in Appendix Fig S6. For clarity, these substrates are referred to as cell‐based assay substrates (e.g., NOTCH1 is cNOTCH1sub). Substrate cDNAs were cloned into pCDNA3.1 (Invitrogen, Carlsbad, CA, USA) for expression in H4 cells (ATCC, Manassas, VA).
# (§3) H4 cells were cultured in Opti‐mem media (Thermo‐Fisher) supplemented with Hyclone 6% fetal bovine serum (GE, Logan, Utah, USA) and 1% penicillin/streptomycin (Life Technologies, Grand Island, NY, USA). pCDNA3.1 plasmids containing the substrate cDNAs were transfected into H4 cells using FuGENE HD reagent (Madison, WI, USA). Stable cell lines were established using G418 selection. […] Cells and conditioned media were used for WB, IP, and ELISA.
# (§4) Sandwich ELISAs used for Aβ detection were performed as previously described (Murphy et al, 1999; Ran et al, 2014). Briefly, Aβ and Aβ‐like peptides in conditioned media were captured with Ab5 antibody and detected with horseradish peroxidase labeled mAb 4G8 (Biolegend). Synthetic Aβ1‐40 was used as standard. All ELISAs were developed with TMB substrate (KPL, Gaithersburg, Maryland, USA). Bis‐Tris precast gels (Biorad, Hercules, CA, USA) were used for all SDS–PAGE. Monoclonal anti‐FLAG M2 antibody (Sigma) and Aβ1‐16 antibody 6E10 (Covance) were used for Western blotting at 1:1,000 dilution. Anti‐CD74 In‐1 antibody (BD Bioscience, San Jose, CA, USA) was used for A20 cell lysate Western blotting at dilution of 1:1,000. MDA‐MB‐231 cell extracts were prepared by lysing cells in RIPA buffer containing protease and phosphatase inhibitors. The lysates were kept on ice for 30 min and vortexed every 10 min, and then centrifuged at 4°C for 10 min at 1,000 g. The supernatants were collected, and protein concentrations were determined by Bradford Assay. Pan‐NOTCH1 antibody (C‐20) (Santa Cruz Biotechnology) and cleaved NOTCH1 (Val1744) antibody ([…]) were used at 1:500 and 1:100 dilution in the test of endogenous NOTCH1 inhibition with β‐actin expression used as loading control. β‐actin antibody was used at 1:1,000 dilution (Sigma). Band intensities normalized for actin using densitometry analysis with ImageJ Software (NIH, USA).
row,Structure (SMILES),rank order of inhibition of cNOTCH2sub
1,CN1C(=O)[C@@H](NC(=O)[C@H](CCC(F)(F)F)[C@H](CCC(F)(F)F)C(N)=O)N=C(c2ccccc2)c2ccccc21 [BMS‐906024],[2]
2,O=C(O)CC[C@H]1CC[C@@](c2cc(F)ccc2F)(S(=O)(=O)c2ccc(Cl)cc2)CC1 [MK‐0752],[5]
3,CCC[C@H](N[C@H]1CCc2cc(F)cc(F)c2C1)C(=O)Nc1cn(C(C)(C)CNCC(C)(C)C)cn1 [PF‐3084014],[1]
4,CC(C)(C(=O)NCC(F)(F)C(F)(F)F)C(=O)N[C@@H]1C(=O)Nc2ccccc2-c2ccccc21 [RO4929097],[3]
5,CC(C)[C@H](O)C(=O)N[C@@H](C)C(=O)N[C@@H]1C(=O)N(C)CCc2ccccc21 [Semagacestat],[4]

# System: cNOTCH3sub
# Test: Cell-based γ-secretase cleavage assay, cNOTCH3sub in H4 cells (Aβ-like peptide ELISA)
# Design: species or system human
# Settings: not given
# Experimental: as §1, §2, §3, §4
row,Structure (SMILES),effect on cNOTCH3sub cleavage at low concentrations
1,O=C(O)CC[C@H]1CC[C@@](c2cc(F)ccc2F)(S(=O)(=O)c2ccc(Cl)cc2)CC1 [MK‐0752],increases cNOTCH3sub cleavage at low doses
2,CCC[C@H](N[C@H]1CCc2cc(F)cc(F)c2C1)C(=O)Nc1cn(C(C)(C)CNCC(C)(C)C)cn1 [PF‐3084014],potentiates cleavage of NOTCH3
3,CC(C)[C@H](O)C(=O)N[C@@H](C)C(=O)N[C@@H]1C(=O)N(C)CCc2ccccc21 [Semagacestat],potentiate

# Same assay, conditions: Aβ-like peptide in media, GSI overnight, read-out: IC50 cNOTCH3sub
row,Structure (SMILES),IC50
1,CN1C(=O)[C@@H](NC(=O)[C@H](CCC(F)(F)F)[C@H](CCC(F)(F)F)C(N)=O)N=C(c2ccccc2)c2ccccc21 [BMS‐906024],1.14 nM
2,O=C(O)CC[C@H]1CC[C@@](c2cc(F)ccc2F)(S(=O)(=O)c2ccc(Cl)cc2)CC1 [MK‐0752],370 nM
3,CCC[C@H](N[C@H]1CCc2cc(F)cc(F)c2C1)C(=O)Nc1cn(C(C)(C)CNCC(C)(C)C)cn1 [PF‐3084014],1.21 nM
4,CC(C)(C(=O)NCC(F)(F)C(F)(F)F)C(=O)N[C@@H]1C(=O)Nc2ccccc2-c2ccccc21 [RO4929097],19.8 nM
5,CC(C)[C@H](O)C(=O)N[C@@H](C)C(=O)N[C@@H]1C(=O)N(C)CCc2ccccc21 [Semagacestat],391 nM

# Same assay, conditions: potentiation at low inhibitor concentration
row,Structure (SMILES),concentration that significantly increases cleavage of the cNOTCH3sub
1,CC(C)(C(=O)NCC(F)(F)C(F)(F)F)C(=O)N[C@@H]1C(=O)Nc2ccccc2-c2ccccc21 [RO4929097],0.5 to 2.5 nM

# Same assay, conditions: value in parentheses, read-out: IC50 cNOTCH3sub, from curves excluding the Aβ level > 120%
row,Structure (SMILES),IC50
1,O=C(O)CC[C@H]1CC[C@@](c2cc(F)ccc2F)(S(=O)(=O)c2ccc(Cl)cc2)CC1 [MK‐0752],194 nM
2,CC(C)(C(=O)NCC(F)(F)C(F)(F)F)C(=O)N[C@@H]1C(=O)Nc2ccccc2-c2ccccc21 [RO4929097],6.93 nM
3,CC(C)[C@H](O)C(=O)N[C@@H](C)C(=O)N[C@@H]1C(=O)N(C)CCc2ccccc21 [Semagacestat],129 nM

# System: cAPPC100sub
# Test: Cell-based γ-secretase cleavage assay, cAPPC100sub stably overexpressing cells (Aβ ELISA)
# Settings: 1–4 pM BMS‐906024
# Description: We next tested all GSIs on cAPPC100sub and full‐length APP stably overexpressing cells. […] The low‐dose potentiation of γ‐secretase cleavage was further mechanistically probed using in vitro assays with recombinant substrates and IP‐MS.
# as §2, §3, §4
row,Structure (SMILES),increase of Aβ production from the cAPPC100sub
1,CN1C(=O)[C@@H](NC(=O)[C@H](CCC(F)(F)F)[C@H](CCC(F)(F)F)C(N)=O)N=C(c2ccccc2)c2ccccc21 [BMS‐906024],~ 1.5 fold

# Same assay, conditions: cAPPC100sub overexpressing cells
row,Structure (SMILES),"low-dose potentiation of cleavage, cAPPC100sub"
1,O=C(O)CC[C@H]1CC[C@@](c2cc(F)ccc2F)(S(=O)(=O)c2ccc(Cl)cc2)CC1 [MK‐0752],low‐dose potentiation of cleavage was observed
2,CC(C)(C(=O)NCC(F)(F)C(F)(F)F)C(=O)N[C@@H]1C(=O)Nc2ccccc2-c2ccccc21 [RO4929097],low‐dose potentiation of cleavage was observed
3,CC(C)[C@H](O)C(=O)N[C@@H](C)C(=O)N[C@@H]1C(=O)N(C)CCc2ccccc21 [Semagacestat],low‐dose potentiation of cleavage was observed

# Same assay, conditions: stably overexpressing cells, Aβ ELISA; read-out: IC50 cC100sub
row,Structure (SMILES),IC50
1,CN1C(=O)[C@@H](NC(=O)[C@H](CCC(F)(F)F)[C@H](CCC(F)(F)F)C(N)=O)N=C(c2ccccc2)c2ccccc21 [BMS‐906024],1.46 nM
2,O=C(O)CC[C@H]1CC[C@@](c2cc(F)ccc2F)(S(=O)(=O)c2ccc(Cl)cc2)CC1 [MK‐0752],336 nM
3,CCC[C@H](N[C@H]1CCc2cc(F)cc(F)c2C1)C(=O)Nc1cn(C(C)(C)CNCC(C)(C)C)cn1 [PF‐3084014],2.47 nM
4,CC(C)(C(=O)NCC(F)(F)C(F)(F)F)C(=O)N[C@@H]1C(=O)Nc2ccccc2-c2ccccc21 [RO4929097],26.6 nM
5,CC(C)[C@H](O)C(=O)N[C@@H](C)C(=O)N[C@@H]1C(=O)N(C)CCc2ccccc21 [Semagacestat],175 nM

# Same assay, conditions: value in parentheses; read-out: IC50 cC100sub, from curves excluding the Aβ level > 120%
row,Structure (SMILES),IC50
1,O=C(O)CC[C@H]1CC[C@@](c2cc(F)ccc2F)(S(=O)(=O)c2ccc(Cl)cc2)CC1 [MK‐0752],154 nM
2,CCC[C@H](N[C@H]1CCc2cc(F)cc(F)c2C1)C(=O)Nc1cn(C(C)(C)CNCC(C)(C)C)cn1 [PF‐3084014],1.34 nM
3,CC(C)(C(=O)NCC(F)(F)C(F)(F)F)C(=O)N[C@@H]1C(=O)Nc2ccccc2-c2ccccc21 [RO4929097],24 nM
4,CC(C)[C@H](O)C(=O)N[C@@H](C)C(=O)N[C@@H]1C(=O)N(C)CCc2ccccc21 [Semagacestat],105 nM
